Results on three molecules are retold here after patent US9321808B2, “Homo- and heterodimeric SMAC mimetic compounds as apoptosis inducers” (BioNTech AG, priority 2012, dated 2016).

Experiment [1] has as its target T1, human XIAP BIR3 domain (Homo sapiens, UniProt P98170).
T1 construct: human XIAP BIR3 domain from residue 241 to 356; made in house; host or cells: Escherichia coli BL21
Kind of experiment: Fluorescence polarization competitive binding, XIAP BIR3. As to conditions: displacement of FITC-SMAC probe from XIAP BIR3-His-tag (60 nM); average of three independent measurements. How it is done: (§1) Data were analyzed using Prism 4.0 software (Graphpad Software).

In experiment [2] the target is T2, human XIAP linker-BIR2-BIR3 (Homo sapiens, UniProt P98170).
T2 construct: human XIAP from residue 124 to 356 (linker-BIR2-BIR3); made in house; host or cells: Escherichia coli BL21
T2 sequence (P98170 124-356): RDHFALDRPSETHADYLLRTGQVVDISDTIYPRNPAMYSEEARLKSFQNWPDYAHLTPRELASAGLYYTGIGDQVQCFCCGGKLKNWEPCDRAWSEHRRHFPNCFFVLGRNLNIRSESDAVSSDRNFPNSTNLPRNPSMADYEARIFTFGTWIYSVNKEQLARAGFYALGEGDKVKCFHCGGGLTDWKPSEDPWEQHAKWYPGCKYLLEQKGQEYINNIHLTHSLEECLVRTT
Kind of experiment: Fluorescence polarization competitive binding, XIAP linker-BIR2-BIR3. The note with it: displacement of SMAC-1F probe (1 nM) from XIAP linker-BIR2-BIR3-His-tag (3 nM); average of three independent measurements. As for the experimental part:
as §1
A general note: Fluorescence polarisation rises when a labelled molecule tumbles more slowly, as on binding a larger partner.

In experiment [3] the target is T3, cIAP1-BIR3 (Homo sapiens, UniProt Q13490).
T3 construct: 6xHis (C); made in house; host or cells: Escherichia coli BL21(DE3)
T3 sequence (Q13490 251-363): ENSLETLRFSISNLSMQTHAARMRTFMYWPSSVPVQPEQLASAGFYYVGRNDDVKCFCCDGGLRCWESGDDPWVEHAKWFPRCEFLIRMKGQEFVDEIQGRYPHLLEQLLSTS
Kind of experiment: Fluorescence polarization binding, cIAP1 BIR3. As to conditions: displacement of fluorescent probe (2 nM) from cIAP1-BIR3 (10 nM); average of three independent measurements; read-out: cIAP1 IC50(av). How it is done: (§2) The plasmids were used to transform Escherichia coli strain BL21(DE3). The recombinant proteins were purified using Ni-NTA (His-trap FFcrude, Ge-Healthcare), followed by gel filtration (Superdex 200, Ge-Healthcare). The recombinant proteins were eluted in 20 mM Tris pH 8.0, 250 mM NaCl and 10 mM DTT. Aliquoted proteins were conserved at −80° C.
(§3) The fluorescently-labelled Smac peptide (AbuRPF-K(5-Fam)-N1-12, final concentration of 2 nM), and increasing concentrations of cIAP1- and cIAP2-BIR3 from 0 to 20 μM, were added to an assay buffer consisting of 100 mM potassium phosphate, pH 7.5, 100 μg/ml bovine γ-globulin, 0.02% sodium azide. […] All experiments were performed in black, flat-bottom 96-well microplates (Greiner bio-one). 4-substituted azabicyclo[5.3.0]alkane Smac-mimetics were evaluated for their ability to displace the fluorescent probe from recombinant protein. […] After 15 minutes mixing on a shaker, and 3 hours incubation at room temperature, fluorescent polarization was measured on the Ultra plate reader (Tecan).

Experiment [4] addresses T4, cIAP2-BIR3 (Homo sapiens, UniProt Q13489).
T4 construct: 6xHis (C); made in house; host or cells: Escherichia coli BL21(DE3)
Kind of experiment: Fluorescence polarization binding, cIAP2 BIR3. The note with it: displacement of fluorescent probe (2 nM) from cIAP2 (25 nM); average of three independent measurements; read-out: cIAP2 IC50(av). How it is done: as §2, §3

In experiment [5] the test system is MDA-MB-231 (breast epithelial adenocarcinoma). Briefly: Standalone cytotoxicity, MTT assay, MDA-MB-231. The experiment is classed as cell-based, human. As to conditions: Homo sapiens, MDA-MB-231, 96 hours treatment, reported as activity range, read-out: MDA-MB-231 IC50 (μM ± standard Deviation). As for the experimental part:
Human cell lines MDA-MB-231 (breast epithelial adenocarcinoma), HL-60 (promieloblast cells) and PC-3 (prostate adenocarcinoma cells) were purchased from Istituto Zooprofilattico di Brescia (www.bs.izs.it). Reagents for cell culture were purchased from Sigma, unless otherwise indicated. Cells were grown on Plastic Petri dishes (Falcon) in RPMI 1640 medium supplemented with 2 mM L-glutamine, Penicillin (100 U/mL)/Streptomicin (100 μg/mL), 10% Fetal Bovine Serum. A sub-cultivation ratio of 1:4 was used. Cells were maintained at 37° C. in an atmosphere of 95% air and 5% CO2.
Cells were seeded in 96-well flat bottom cell culture plates at a density of 5000 cells/well in 100 μL of culture medium. HL-60 cells were immediately stimulated with the indicated compounds for 96 hours in the incubator. MDA-MB-231 and PC-3 cells were allowed to adhere for 24 hours. prior to be exposed to the compounds for 96 hours in the incubator. Cells were exposed to the following concentrations of the compounds: 50 nM, 100 nM, 200 nM, 500 nM, 1 μM, 5 μM, 10 μM, 50 μM and 100 μM. Each point was done in triplicate. The cellular growth inhibitory effect of our compounds was evaluated using the MTT assay (Sigma). After 96 hours of treatment, 10 μL of MTT reagent solution (5 mg of MTT powder/mL diluted in Phosphate Buffer Salt saline solution) were added in each well and allowed to react for 3 hours in the incubator. After 3 hours cells were solubilized in Lysis Buffer (10% SDS/0.1% HCl in water, 100 μL for each well) for 24 hours at 37° C. Finally, the absorbance was measured at 570 nm using a multiplate reader. Absorbance values were collected and IC50 values were determined using GraphPad Prism5 software. The experiments were repeated twice.
After 96 hours of treatment, 10 μl of MTT reagent solution (5 mg of MTT powder/ml diluted in Phosphate Buffer Salt saline solution) were added in each well and allowed to react for 3 hours in the incubator. After 3 hours cells were solubilized in Lysis Buffer (10% SDS/0.1% HCl in water, 100 μl for each well) for 24 hours at 37° C. Finally, the absorbance was measured at 570 nm using a multiplate reader. Absorbance values were collected and IC50/IC80 values were determined using GraphPad Prism5 software.
A general note: Tetrazolium assays rely on reduction of a dye to a coloured formazan, in cell work by metabolically active cells.

The target of experiment [6] is XIAP (Homo sapiens, UniProt P98170). As to conditions: technical background; read-out: Kd, binding to XIAP; cited from earlier work.
XIAP, sequence (P98170 whole entry): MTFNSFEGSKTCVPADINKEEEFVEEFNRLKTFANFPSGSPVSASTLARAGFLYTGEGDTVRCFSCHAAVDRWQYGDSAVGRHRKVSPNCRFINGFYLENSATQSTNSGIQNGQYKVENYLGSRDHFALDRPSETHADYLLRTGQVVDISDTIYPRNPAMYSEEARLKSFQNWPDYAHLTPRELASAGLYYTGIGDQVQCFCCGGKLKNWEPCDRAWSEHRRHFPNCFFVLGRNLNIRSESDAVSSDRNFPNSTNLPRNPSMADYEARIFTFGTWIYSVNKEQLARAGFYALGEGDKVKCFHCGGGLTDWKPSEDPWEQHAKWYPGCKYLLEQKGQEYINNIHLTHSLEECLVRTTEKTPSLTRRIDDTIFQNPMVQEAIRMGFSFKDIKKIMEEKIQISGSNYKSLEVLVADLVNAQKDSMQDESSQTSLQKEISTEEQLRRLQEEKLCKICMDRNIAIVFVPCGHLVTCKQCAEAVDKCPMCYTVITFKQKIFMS

T1 sequence (P98170 241-356): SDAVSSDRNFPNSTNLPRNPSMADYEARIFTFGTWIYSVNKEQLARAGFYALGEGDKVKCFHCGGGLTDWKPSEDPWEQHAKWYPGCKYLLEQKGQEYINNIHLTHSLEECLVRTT
T4 sequence (Q13489 237-349): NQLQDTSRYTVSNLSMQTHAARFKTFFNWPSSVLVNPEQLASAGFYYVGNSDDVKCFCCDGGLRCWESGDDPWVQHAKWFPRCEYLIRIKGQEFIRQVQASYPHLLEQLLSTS

On to `CC[C@H](NC)C(=O)N[C@@H]1C(=O)N2[C@@H](CC[C@@H]1CO)CC[C@H]2C(=O)N[C@H](C(=O)NCCCCNc1c(NCCCCNC(=O)[C@@H](NC(=O)[C@@H]2CC[C@@H]3CC[C@H](CO)[C@H](NC(=O)[C@H](CC)NC)C(=O)N32)c2ccccc2)c(=O)c1=O)c1ccccc1` [Compound 30b], for which the IC50 was 26.7 nM in experiment [1]; 0.8 nM in experiment [2]; 2.6 nM in experiment [3]; 2.9 nM in experiment [4]; 10 to 50 µM in experiment [5].
Regarding `CC[C@H](NC)C(=O)N[C@@H]1C(=O)N2[C@@H](CC[C@@H]1CNC(=O)CCc1cn(CCOCCOCCOCCNC(=O)[C@@H](NC(=O)[C@@H]3CC[C@@H]4CC[C@H](CO)[C@H](NC(=O)[C@H](CC)NC)C(=O)N43)c3ccccc3)nn1)CC[C@H]2C(=O)NC(c1ccccc1)c1ccccc1` [Compound 34a], the 50% inhibitory concentration (IC50) is 31.1 nM in experiment [1]; 0.11 nM in experiment [2]; 3.2 nM in experiment [3]; 0.3 nM in experiment [4]; 10 to 50 µM in experiment [5].

B1: mature Smac protein: "second mitochondria-derived activator of caspases"; "N-terminal mitochondrial targeting sequence that is proteolytically removed during maturation to the mature polipeptide" (protein, UniProt Q9NR28 22-239, looked up)
Diablo IAP-binding …: LCVPVVANFKKRCFSELIRPWHKTVTIGFGVTLCAVPIAQKSEPHSLSSEALMRRAVSLVTDSTSTFLSQTTYALIEAITEYTKAVYTLTSLYRQYTSLLGKMNSEEEDEVWQVIIGARAEMTSKHQEYLKLETTWMTAVGLSEMAAEAAYQTGADQASITARNHIQLVKLQVEEVHQLSRKAETKLAEAQIEELRQKTQEEGEERAESEQEAYLRED
In the case of B1, in experiment [6], the Kd was 420 nM.

As a reminder, the IC50 is the concentration that inhibits the measured activity by half. The Kd is the equilibrium constant for the complex coming apart.
